The test system of this data set is RNA molecular beacon and Target RNA. Kind of data set: RNA annealing kinetics (molecular beacon and Target RNAs), stopped-flow fluorescence. Format: biochemical. To be noted: 30 °C. As to the method:
Figure 2. CTD and RNA occupy the same rim binding site. […] The CTD linker is shown in purple, the acidic tip in red and the N-terminal FITC as a yellow star. Hfq core is shown in cyan, with basic rim patches in dark blue. […] (C) Reaction scheme for annealing an RNA molecular beacon to a target RNA (open bar) ([Hopkins et al., 2011]; [Panja et al., 2015]). (D) Progress curves for annealing 50 nM molecular beacon and 100 nM Target by 50 nM Hfq65 hexamer at 30°C, measured by stopped-flow fluorescence. See Figure 2—figure supplement 3 for further data. (E) Contribution of core residues to CTD binding. Interaction energy (Expected Energetic Contribution; EEC) in silico for a core residue in the Rosetta models (solid symbols and solid line; adjusted R^2 = 0.77) or the average annealing rates for Target and Target-A18 relative to Hfq65 (open symbols and dashed line; adjusted R^2 = 0.94) versus experimental CTD binding energy (∆∆G°) for each Hfq65 variant. The binding energy, ∆∆G° = –RTln(Kd^MUT/Kd), reflects the perturbation to CTD binding by a mutation in Hfq65. The interaction energy in silico or EEC is defined as the average energy of a tail–core interaction multiplied by the average number of tail–core interactions per model (Figure 1B, top and Equation 3). The relative annealing rate for Hfq65 variants, krel = kobs^MUT/kobs^WT, is <1 if the mutated residue is important for RNA annealing. Figure 2—figure supplement 1. SDS-PAGE of purified Hfq variants. […] Annealing of 100 nM Target RNA to 50 nM beacon RNA by Hfq65 and Hfq65 variants was measured by stopped flow fluorescence at 30°C in 1 × TNK buffer. […] The change in fluorescence emission intensity was normalized to the maximum fluorescence within an experiment. […]
To determine how much core residues that bind the CTD contribute to Hfq’s RNA annealing activity, we compared the effect of rim mutations on the rate of base pairing between an RNA molecular beacon and the 16 nt Target RNA by stopped-flow fluorescence spectroscopy (Figure 2C) ([Hopkins et al., 2011]). […]

For the substance Hfq65-R16A, the “observed annealing rate of Hfq65 rim mutants” value (50 nM molecular beacon, 100 nM Target, Hfq65 variants, TNK buffer) is recorded as “most diminished”.

On to “Hfq65: truncated E. coli Hfq variant lacking the CTD”, for which, for the setting “50 nM beacon, 100 nM Target RNA, 0–200 nM Hfq hexamer”, the “activity in single-turnover annealing assays” value is recorded as “highly active”.

For the origin of these results see PMC5606850, “Acidic C-terminal domains autoregulate the RNA chaperone Hfq” (eLife, 2017).
